Literature values, collected in patent US20120115745A1, “METHODS FOR PREDICTING SENSITIVITY TO TREATMENT WITH A TARGETED TYROSINE KINASE INHIBITOR” (priority 2010, published 2012).

Experiments:
[1] = molecular target: unrelated receptor tyrosine kinases, soluble tyrosine kinases and serine/threonine kinases; conditions: less activity than against VEGF and PDGF receptor families
[2] = system: tumor cells that are dependent on mutant, constitutively active, FLT3 and KIT kinases

IC50 [1]: > 1000 nM
Structure (SMILES): Cc1ccc(F)c(NC(=O)Nc2ccc(-c3cccc4[nH]nc(N)c34)cc2)c1 [ABT-869, N-(4-(3-amino-1H-indazol-4-yl)phenyl)-N′-(2-fluoro-5-methylphenyl)urea]
anti-proliferative and apoptotic effects on tumor cells [2]: potent anti-proliferative and apoptotic effects
